Laboratory results reported in patent US8354436B2 (4SC Discovery GmbH, priority 2011, dated 2013).
Read-outs that look alike come from different tables or passages of the source.

Assays:
Format in all cases: cell-based
Conditions in all cases: 48 hours
IL-17FF = IL-17FF production by PHA-stimulated human PBMC (human IL-17F ELI-Pair)
Procedure: Analysis of Proliferation of and Cytokine Production by Human PBMC Stimulated with PHA
Peripheral blood mononuclear cells (PBMC) from healthy human donors were purified using Accuspin™ System-Histopaque-1077 (Sigma) according to the protocol recommended by the manufacturer. Purified PBMC were then washed twice with phosphate-buffered saline (PBS) and resuspended in RPMI1640 culture medium supplemented with 10% dialyzed heat inactivated fetal calf serum, 1.5 mM L-glutamine, 100 U penicillin/ml, and […] (all from PAN Biotech, Aidenbach, Germany). For stimulation, PBMC were seeded at 1×10^5 cells/well, activated with 2 μg/ml phytohaemagglutinin (PHA, Sigma) and incubated with the test compounds for 48 hours. IL-17A, IL-17F and INF-γ were then determined in the culture supernatant using a Luminex BioPlex system, following the manufacturer's instructions (BioRad, Munich, Germany). For screening, compounds were used at 10, 1, 0.1 and 0.01 μM. To determine the IC50, compounds were titrated semilogarithmically.
Cytokines were determined in the aforementioned culture supernatant using the following methods: IL-17AA/AF was measured using the Luminex BioPlex system (BioRad, Munich, Germany); IL-17AA using the human homodimer IL-17A ELISA Ready Set Go Kit from eBioscience (Frankfurt, Germany); IL-17FF using the human IL-17F ELI-Pair from Hölzel DiagnosticaGmBH (Köln, Germany); and IFN-γ using the OptEIA human IFN-g ELISA from BD Bioscience (Heidelberg, Germany), all following the manufacturer's instructions.

IFN-γ = IFN-γ production by PHA-stimulated human PBMC (OptEIA human IFN-g ELISA)
Outline: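 Healthy-donor PBMC (1×10^5 cells/well) were activated with 2 μg/ml PHA and cultured with test compounds for 48 hours; cytokines were then quantified in supernatants by the respective immunoassay. Screening used 10, 1, 0.1 and 0.01 μM; IC50 came from semilogarithmic compound titration.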

[1] = tested on: PBMC from healthy human donors; test: T cell proliferation assay (PHA-stimulated human PBMC, BrdU ELISA)
Outline: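 Healthy-donor PBMC isolated on Ficoll, seeded at 1×10⁵ cells/well in RPMI with 10% dialysed FCS, stimulated with 2 μg/ml PHA in presence of test compound. Proliferation read after 48 hours by BrdU-incorporation ELISA.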

[2] = PHA-stimulated human PBMC, column B, read-out: IC50 (IL-17FF)
[3] = PHA-stimulated human PBMC, column C, read-out: IC50 (IFNγ)
[4] = PHA-stimulated human PBMC, column D, read-out: IC50 (Tcell proliferation)
[5] = human PBMC, 2 μg/ml PHA, read-out: B: IC50 (IL-17FF)
[6] = human PBMC, 2 μg/ml PHA, read-out: C: IC50 (IFNγ)
[7] = human PBMC, 2 μg/ml PHA, read-out: D: IC50 (Tcell proliferation)

SMILES	IC50 (IL-17FF; [2])	IC50 (IFN-γ; [3])	IC50 [1, 4]	IC50 (IL-17FF; [5])	IC50 (IFN-γ; [6])	IC50 [1, 7]
CON(C)C(=O)c1c(-c2c(F)cccc2Cl)noc1-c1cnn(-c2ccncc2)c1C(F)(F)F [IB-59, 3-(2-chloro-6-fluorophenyl)-N-methoxy-N-methyl-5-(1-(pyridin-4-yl)-5-(trifluoromethyl)-1H-pyrazol-4-yl)isoxazole-4-carboxamide]	1000 to 10000 nM	1000 to 10000 nM	1000 to 10000 nM			
COC(=O)c1c(-c2ccccc2F)noc1-c1cnn(-c2cccc(F)c2)c1C(F)(F)F [Example I-92, methyl 3-(2-fluorophenyl)-5-(1-(3-fluorophenyl)-5-(trifluoromethyl)-1H-pyrazol-4-yl)isoxazole-4-carboxylate]	100 to 1000 nM	100 to 1000 nM	100 to 1000 nM			
Oc1csc(-c2c(-c3c(F)cccc3Cl)noc2-c2cnn(-c3cccc(F)c3)c2C(F)(F)F)n1 [Example 9, 2-(3-(2-chloro-6-fluorophenyl)-5-(1-(3-fluorophenyl)-5-(trifluoromethyl)-1H-pyrazol-4-yl)isoxazol-4-yl)thiazol-4-ol]				100 to 1000 nM	100 to 1000 nM	100 to 1000 nM
Cc1nnc(-c2c(-c3c(F)cccc3Cl)noc2-c2cnn(-c3ccccn3)c2C(F)(F)F)o1 [Example B-26, 2-(3-(2-chloro-6-fluorophenyl)-5-(1-(pyridin-2-yl)-5-(trifluoromethyl)-1H-pyrazol-4-yl)isoxazol-4-yl)-5-methyl-1,3,4-oxadiazole]				10 to 100 nM	10 to 100 nM	100 to 1000 nM
O=C(c1c(-c2c(F)cccc2Cl)noc1-c1cnn(-c2cccc(Cl)c2)c1C(F)(F)F)N1CCOCC1 [IB-35, (3-(2-chloro-6-fluorophenyl)-5-(1-(3-chlorophenyl)-5-(trifluoromethyl)-1H-pyrazol-4-yl)isoxazol-4-yl)(morpholino)methanone]	100 to 1000 nM	100 to 1000 nM	1000 to 10000 nM			
CCOC(=O)c1c(-c2c(Cl)cccc2Cl)noc1-c1cnn(-c2cccc(Cl)c2)c1C(F)(F)F [IB-45, ethyl 5-(1-(3-chlorophenyl)-5-(trifluoromethyl)-1H-pyrazol-4-yl)-3-(2,6-dichlorophenyl)-isoxazole-4-carboxylate]	< 10 nM	< 10 nM	< 10 nM			
O=CNc1c(-c2c(F)cccc2Cl)noc1-c1cnn(-c2cccc(Cl)c2)c1C(F)(F)F [IB-48, N-(3-(2-chloro-6-fluorophenyl)-5-(1-(3-chlorophenyl)-5-(trifluoromethyl)-1H-pyrazol-4-yl)isoxazol-4-yl)formamide]	1000 to 10000 nM		1000 to 10000 nM			
CC(=O)Nc1cccc(-n2ncc(-c3onc(-c4c(F)cccc4Cl)c3-c3nnco3)c2C(F)(F)F)c1 [Example B-13, N-(3-(4-(3-(2-chloro-6-fluorophenyl)-4-(1,3,4-oxadiazol-2-yl)isoxazol-5-yl)-5-(trifluoromethyl)-1H-pyrazol-1-yl)phenyl)acetamide]				1000 to 10000 nM	1000 to 10000 nM	
CON(C)C(=O)c1c(-c2c(F)cccc2Cl)noc1-c1cnn(-c2cccc(NC(C)=O)c2)c1C(F)(F)F [IB-87, 5-(1-(3-acetamidophenyl)-5-(trifluoromethyl)-1H-pyrazol-4-yl)-3-(2-chloro-6-fluorophenyl)-N-methoxy-N-methylisoxazole-4-carboxamide]	1000 to 10000 nM	1000 to 10000 nM				
CNC(=O)c1c(-c2c(F)cccc2Cl)noc1-c1cnn(-c2ccncc2)c1C(F)(F)F [IB-58, 3-(2-chloro-6-fluorophenyl)-N-methyl-5-(1-(pyridin-4-yl)-5-(trifluoromethyl)-1H-pyrazol-4-yl)isoxazole-4-carboxamide]	1000 to 10000 nM	1000 to 10000 nM				
CC(=O)Nc1cccc(-n2ncc(-c3onc(-c4c(F)cccc4Cl)c3C(=O)N3CCCO3)c2C(F)(F)F)c1 [IB-88, N-(3-(4-(3-(2-chloro-6-fluorophenyl)-4-(isoxazolidine-2-carbonyl)isoxazol-5-yl)-5-(trifluoromethyl)-1H-pyrazol-1-yl)phenyl)acetamide]	1000 to 10000 nM	1000 to 10000 nM				
Fc1cc(F)c(F)c(-n2ncc(-c3onc(-c4c(F)cccc4Cl)c3Br)c2C(F)(F)F)c1F [Example I-144, 4-bromo-3-(2-chloro-6-fluorophenyl)-5-(1-(2,3,5,6-tetrafluorophenyl)-5-(trifluoromethyl)-1H-pyrazol-4-yl)isoxazole]	1000 to 10000 nM	1000 to 10000 nM				
CON(C)C(=O)c1c(-c2c(F)cccc2Cl)noc1-c1cnn(-c2cccc(S(N)(=O)=O)c2)c1C(F)(F)F [IB-66, 3-(2-chloro-6-fluorophenyl)-N-methoxy-N-methyl-5-(1-(3-sulfamoylphenyl)-5-(trifluoromethyl)-1H-pyrazol-4-yl)isoxazole-4-carboxamide]	1000 to 10000 nM	1000 to 10000 nM				
NS(=O)(=O)c1cccc(-n2ncc(-c3onc(-c4c(F)cccc4Cl)c3C(=O)N3CCCO3)c2C(F)(F)F)c1 [IB-65, 3-(4-(3-(2-chloro-6-fluorophenyl)-4-(isoxazolidine-2-carbonyl)isoxazol-5-yl)-5-(trifluoromethyl)-1H-pyrazol-1-yl)benzenesulfonamide]	1000 to 10000 nM	1000 to 10000 nM				
CC(=O)Nc1cccc(-n2ncc(-c3onc(-c4c(F)cccc4Cl)c3-c3nnc(C)o3)c2C(F)(F)F)c1 [Example B-11, N-(3-(4-(3-(2-chloro-6-fluorophenyl)-4-(5-methyl-1,3,4-oxadiazol-2-yl)isoxazol-5-yl)-5-(trifluoromethyl)-1H-pyrazol-1-yl)phenyl)acetamide]				1000 to 10000 nM	100 to 1000 nM	
CCOC(=O)c1c(-c2c(F)cccc2Cl)noc1-c1cnn(Cc2ccccn2)c1C(F)(F)F [IB-104, ethyl 3-(2-chloro-6-fluorophenyl)-5-(1-(pyridin-2-ylmethyl)-5-(trifluoromethyl)-1H-pyrazol-4-yl)isoxazole-4-carboxylate]	1000 to 10000 nM	1000 to 10000 nM				
CNC(=O)c1c(-c2c(F)cccc2Cl)noc1-c1cnn(-c2cc(F)cc(F)c2)c1C(F)(F)F [Example I-58, 3-(2-chloro-6-fluorophenyl)-5-(1-(3,5-difluorophenyl)-5-(trifluoromethyl)-1H-pyrazol-4-yl)-N-methylisoxazole-4-carboxamide]	1000 to 10000 nM	100 to 1000 nM				
CCOC(=O)c1c(-c2onc(-c3c(F)cccc3Cl)c2C(=O)OC)cnn1-c1cccc(Cl)c1Cl [Example I-9, methyl 3-(2-chloro-6-fluorophenyl)-5-(1-(2,3-dichlorophenyl)-5-(ethoxycarbonyl)-1H-pyrazol-4-yl)isoxazole-4-carboxylate]	1000 to 10000 nM		1000 to 10000 nM			
COC(=O)c1c(-c2c(F)cccc2Cl)noc1-c1cnn(-c2ccccc2OC)c1C(F)(F)F [Example I-52, methyl 3-(2-chloro-6-fluorophenyl)-5-(1-(2-methoxyphenyl)-5-(trifluoromethyl)-1H-pyrazol-4-yl)isoxazole-4-carboxylate]	100 to 1000 nM	100 to 1000 nM				
CCOC(=O)c1c(-c2ccc(OC)cc2)noc1-c1cnn(-c2cccc(F)c2)c1C(F)(F)F [Example I-100, ethyl 5-(1-(3-fluorophenyl)-5-(trifluoromethyl)-1H-pyrazol-4-yl)-3-(4-methoxyphenyl)isoxazole-4-carboxylate]	1000 to 10000 nM	1000 to 10000 nM				
COC(=O)c1c(-c2c(F)cccc2Cl)noc1-c1cnn(-c2ccc(S(N)(=O)=O)cc2)c1C(F)(F)F [Example I-86, methyl 3-(2-chloro-6-fluorophenyl)-5-(1-(4-sulfamoylphenyl)-5-(trifluoromethyl)-1H-pyrazol-4-yl)isoxazole-4-carboxylate]	1000 to 10000 nM	1000 to 10000 nM				
CCOC(=O)c1c(-c2ccc(Cl)cc2)noc1-c1cnn(-c2cccc(Cl)c2)c1C(F)(F)F [Example I-77, ethyl 3-(4-chlorophenyl)-5-(1-(3-chlorophenyl)-5-(trifluoromethyl)-1H-pyrazol-4-yl)isoxazole-4-carboxylate]	1000 to 10000 nM		1000 to 10000 nM			
CNC(=O)c1c(-c2c(F)cccc2Cl)noc1-c1cnn(CC(C)C)c1C(F)(F)F [Example I-37, 3-(2-chloro-6-fluorophenyl)-5-(1-isobutyl-5-(trifluoromethyl)-1H-pyrazol-4-yl)-N-methylisoxazole-4-carboxamide]	100 to 1000 nM	1000 to 10000 nM				
